Results from patent US4983328A, “N-(4-(3-aminopropyl)aminobutyl)-2-(ω-gua nidino-fatty-acid-amido(-2-substituted-ethanamide, salt thereof, and process for preparation thereof” (Bristol-Myers Company, priority 1981, dated 1991).
In brackets after ≈: the same amount, converted by molar mass.

How the values were obtained:
[1] = chemical stability: retention (%) after heating at 60° C. for 4 hours, by HPLC; format: physicochemical
Method: The chemical stability of the present compound was evaluated by determining the retention (%) after heating at 60° C. for 4 hours. In Table 5 are shown the test results together with those for spergualin as reference. The retention was determined by means of high performance liquid chromatography (HPLC). The column was packed with Nucleosil® 5C18. The solvent used for spergualin was a mixture (6:94) of acetonitrile -0.01M sodium pentanesulfonate +0.01M Na2 HPO4 (pH 3), while that for the compounds of this invention was a mixture of acetonitrile -0.005M sodium pentanesulfonate ±0.01M Na2 HPO4 (pH 3). The mixture ratio in the latter case was varied for each particular compound. For instance, a mixing ratio of 10:90 was used for Compound No. 9, while that of 7:93 for Compound No. 22.

[2] = system: mouse leukemia L-1210 cells; assay: growth inhibitory activity to cancer cells in vitro (L-1210, 48 hours); format: cell-based
How it was run: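 L-1210 cells from DBA/2 mouse ascites, cultured at 5×10^4 cells per well in RPMI 1640 with 10% FCS and 5 μM 2-mercaptoethanol, 37° C, CO2, for 48 h with compound. Cell counts by Coulter Counter gave % inhibition (1−T/C)×100, and IC50 was derived across concentrations.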

mouse leukemia L-1210 = assay: therapeutic effect on implanted cancer in mice (L-1210, survival over 30 days); format: in vivo, mouse (BDF1); conditions: L1210, ip, 720 h, 6 days
How it was run: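 Male BDF1 mice aged 5 weeks received an intraperitoneal inoculation of 10^5 L-1210 mouse leukemia cells. Starting on the inoculation day, test compounds dissolved in physiological saline were injected intraperitoneally once daily for 6 consecutive days, and animals were then followed for 30 days to record survival.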

[3] = acute toxicity in mice (single intraperitoneal administration); conditions: mouse, in vivo, ip; read-out: LD50 (median lethal dose on single administration)
Method: In Table 8 median lethal doses (LD50) of typical compounds of this invention are shown, measured in mice upon single intraperitoneal administration, as well as maximum tolerated doses in terms of total dose when a fixed amount per unit body weight was administered intraperitoneally to mice once a day for 6 consecutive days.
*Median lethal dose on single administration.

[4] = cumulative toxicity in mice (maximum tolerated dose, once a day for 6 consecutive days); conditions: mouse, in vivo, ip, i.p. once a day for 6 consecutive days, total dose, read-out: Maximum Tolerated Dose (total dose not causing death)
How it was run: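 Mice dosed intraperitoneally once a day for 6 consecutive days with a fixed amount per unit body weight. The value is the maximum total dose not causing death.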

## N=C(N)NCCCC[C@H](O)CC(=O)NC(OCCO)C(=O)NCCCCNCCCN (stereo partly drawn) [Compound 25, N-[4-(3-aminopropyl)aminobutyl]-2-(7-guanidino-3-hydroxyheptanamido)-2-(2-hydroxy)ethoxyethanamide]
[1]; pH 2, pH 2
  remaining at 4 h: 68.9%
[1]; pH 4, pH 4
  remaining at 4 h: 100%
[1]; pH 5, pH 5
  remaining at 4 h: 100%
[1]; pH 6, pH 6
  remaining at 4 h: 100%
[1]; pH 7, pH 7
  remaining at 4 h: 100%
[1]; pH 8, pH 8
  remaining at 4 h: 100%
[1]; pH 9, pH 9
  remaining at 4 h: 97.7%
[1]; pH 10, pH 10
  remaining at 4 h: 95.5%
[2]; L1210, 2.5 mcg/ml, read-out: Growth inhibition (%), (1-T/C) × 100
  inhibition at 2.5 µg/mL: 9%
[2]; L1210, 5 mcg/ml, read-out: Growth inhibition (%), (1-T/C) × 100
  inhibition at 5 µg/mL: 20%
[2]; L1210, 10 mcg/ml, read-out: Growth inhibition (%), (1-T/C) × 100
  inhibition at 10 µg/mL: 42%
[2]; L1210, 20 mcg/ml, read-out: Growth inhibition (%), (1-T/C) × 100
  inhibition at 20 µg/mL: 63.5%
[2]; L1210, 40 mcg/ml, read-out: Growth inhibition (%), (1-T/C) × 100
  inhibition at 40 µg/mL: 74.7%
[2]; L1210, L-1210 cells, read-out: 50% inhibitory concentration
  IC50: 7.2 µg/mL (≈ 16.1 µM)
Mouse leukemia L-1210; 6.25 mg/kg/day i.p., read-out: Number of mice survived for 30 days (converted)
  responders at 6.25 mg/kg: 0%
Mouse leukemia L-1210; 6.25 mg/kg/day i.p., read-out: Prolongation of survival period (%), T/C × 100
  response vs control in vivo at 6.25 mg/kg: 107%
Mouse leukemia L-1210; 12.5 mg/kg/day i.p., read-out: Number of mice survived for 30 days (converted)
  responders at 12.5 mg/kg: 0%
Mouse leukemia L-1210; 12.5 mg/kg/day i.p., read-out: Prolongation of survival period (%), T/C × 100
  response vs control in vivo at 12.5 mg/kg: 193%
Mouse leukemia L-1210; 25 mg/kg/day i.p., read-out: Number of mice survived for 30 days (converted)
  responders at 25 mg/kg: 0%
Mouse leukemia L-1210; 25 mg/kg/day i.p., read-out: Prolongation of survival period (%), T/C × 100
  response vs control in vivo at 25 mg/kg: 229%
Mouse leukemia L-1210; 50 mg/kg/day i.p., read-out: Number of mice survived for 30 days (converted)
  responders at 50 mg/kg: 100%
Mouse leukemia L-1210; 50 mg/kg/day i.p., read-out: Prolongation of survival period (%), T/C × 100
  response vs control in vivo at 50 mg/kg: > 429%
[3]
  LD50: > 50 mg/kg
[4]
  MTD: > 300 mg/kg
